From patent US10450301B2, “Apoptosis signal-regulating kinase 1 inhibitors and methods of use thereof” (ENANTA PHARMACEUTICALS, INC., priority 2017, dated 2019)

Target: ASK1 (Homo sapiens (Human), UniProt Q99683)
Assay: HTRF KinEASE Assay (TR-FRET, STK3 peptide substrate), inhibition of ASK1
Type: biochemical
Conditions: 5 nM ASK1 kinase, 1 μM STK3 peptide substrate, 100 μM ATP, 3 hours; compound 0 to 10 μM
Description: Assay HTRF® KinEASE™ Assay
ASK1 was purchased from Thermofisher (Catalogue # PV4011), ATP was purchased from Sigma (Catalogue # A7699), HI-TRF® KinEASE™ Assay System was obtained from Cisbio (Bedford, Mass.). […] HTRF® KinEASE™-STK is a generic method for measuring serine/threonine kinase activities using a time-resolved fluorescence resonance energy transfer (TR-FRET) immunoassay. […] 100 Um ATP is added to start kinase reaction and incubated for 3 hours. The STK3-antibody labeled with Eu^3+-Cryptate and 125 Nm streptavidin-XL665 are mixed in a single addition with stop reagents provided by the Cisbio kit used to stop the kinase reaction. […] The resulting TR-FRET is proportional to the phosphorylation level. Staurosporine was used as the positive control. IC50 was determined by Xlfit 5.3.
By using above method, the inhibition of ASK1 was evaluated for the compounds of Formula (I).

Chain of ASK1 (Q99683 whole entry): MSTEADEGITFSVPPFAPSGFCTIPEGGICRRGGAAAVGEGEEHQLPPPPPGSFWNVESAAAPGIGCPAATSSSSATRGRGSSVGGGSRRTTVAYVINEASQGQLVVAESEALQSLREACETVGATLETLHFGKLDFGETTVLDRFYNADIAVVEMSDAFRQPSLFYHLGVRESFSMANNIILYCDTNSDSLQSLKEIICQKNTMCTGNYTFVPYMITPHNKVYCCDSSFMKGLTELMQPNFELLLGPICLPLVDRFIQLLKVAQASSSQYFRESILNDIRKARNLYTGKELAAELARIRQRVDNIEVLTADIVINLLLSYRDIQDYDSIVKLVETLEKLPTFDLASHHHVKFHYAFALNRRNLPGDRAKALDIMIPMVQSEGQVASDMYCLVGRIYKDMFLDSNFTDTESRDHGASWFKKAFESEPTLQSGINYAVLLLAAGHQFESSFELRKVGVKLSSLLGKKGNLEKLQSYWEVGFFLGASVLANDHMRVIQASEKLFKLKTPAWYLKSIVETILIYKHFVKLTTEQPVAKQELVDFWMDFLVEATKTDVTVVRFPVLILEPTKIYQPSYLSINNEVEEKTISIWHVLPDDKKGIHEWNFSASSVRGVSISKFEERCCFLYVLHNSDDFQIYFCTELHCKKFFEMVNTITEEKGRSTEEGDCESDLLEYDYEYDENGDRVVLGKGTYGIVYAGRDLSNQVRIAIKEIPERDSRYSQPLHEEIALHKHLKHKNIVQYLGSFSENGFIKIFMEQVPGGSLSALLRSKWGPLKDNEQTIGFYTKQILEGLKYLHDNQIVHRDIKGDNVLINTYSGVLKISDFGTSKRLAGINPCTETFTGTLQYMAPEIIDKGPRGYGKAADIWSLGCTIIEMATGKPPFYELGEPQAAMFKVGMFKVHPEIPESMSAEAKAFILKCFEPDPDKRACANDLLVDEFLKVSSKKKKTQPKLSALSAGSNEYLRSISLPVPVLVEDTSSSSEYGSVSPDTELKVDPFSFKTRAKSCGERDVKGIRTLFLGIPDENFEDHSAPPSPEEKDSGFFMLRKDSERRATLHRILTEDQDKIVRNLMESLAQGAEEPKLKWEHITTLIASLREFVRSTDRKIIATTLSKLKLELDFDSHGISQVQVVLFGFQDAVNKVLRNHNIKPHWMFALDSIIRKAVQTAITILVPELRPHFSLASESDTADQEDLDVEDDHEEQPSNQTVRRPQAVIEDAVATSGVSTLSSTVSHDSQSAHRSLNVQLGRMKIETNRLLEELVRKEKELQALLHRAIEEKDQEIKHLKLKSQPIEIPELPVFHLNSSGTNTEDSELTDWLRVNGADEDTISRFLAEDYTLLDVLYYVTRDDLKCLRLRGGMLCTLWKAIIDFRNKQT

CC(=O)OC[C@@H](C)n1nnnc1-c1cccc(NC(=O)c2cc3c(cn2)CCN(C(=O)OC(C)(C)C)C3)n1 [Example 147, tert-butyl (R)-7-((6-(1-(1-acetoxypropan-2-yl)-1H-tetrazol-5-yl)pyridin-2-yl)carbamoyl)-3,4-dihydro-2,6-naphthyridine-2(1H)-carboxylate]
IC50: 100 to 1000 nM

CC(C)n1nnnc1-c1cccc(NC(=O)c2cc3c(cc2F)CCNC3)n1 [Example 58]
IC50: 100 to 1000 nM

CC1c2cc(C(=O)Nc3cccc(-c4nnnn4C(C)C)n3)c(F)cc2CCN1S(=O)(=O)CCC(F)(F)F (stereo not drawn) [Example 70]
IC50: 10 to 100 nM

CC(C)n1nnnc1-c1cccc(NC(=O)c2cc3c(cn2)CCN(C(=O)N2CCS(=O)(=O)CC2)C3)n1 [Example 137]
IC50: 1 to 10 nM

CC(C)n1nnnc1-c1cccc(NC(=O)c2ccc3c(c2)CN(C(=O)N2CCCC2)C3)n1 [Example 11]
IC50: 100 to 1000 nM

CC(C)n1nnnc1-c1cccc(NC(=O)c2cc3c(cc2F)CCN(S(=O)(=O)C2CCCC2)C3)n1 [Example 85]
IC50: 10 to 100 nM

CC(C)OC(=O)N1CCc2cnc(C(=O)Nc3cccc(-c4nnnn4[C@H](C)CO)n3)cc2C1 [Example 162, isopropyl (R)-7-((6-(1-(1-hydroxypropan-2-yl)-1H-tetrazol-5-yl)pyridin-2-yl)carbamoyl)-3,4-dihydro-2,6-naphthyridine-2(1H)-carboxylate]
IC50: 1 to 10 nM

CCOC(=O)N1CCc2ccc(C(=O)Nc3cccc(-c4nncn4C(C)C)n3)cc2C1 [Example 36]
IC50: 10 to 100 nM

CC(C)n1cnnc1-c1cccc(NC(=O)c2cc3c(cc2F)CCN(C(=O)N(C)C)C3)n1 [Example 48]
IC50: 1 to 10 nM

CCN(C)C(=O)N1CCc2cnc(C(=O)Nc3cccc(-c4nnnn4[C@H](C)CO)n3)cc2C1 [Example 167]
IC50: 1 to 10 nM

CC(C)n1nnnc1-c1cccc(NC(=O)c2cc3c(cn2)CCN(C(=O)N(C)CCC(F)(F)F)C3)n1 [Example 114]
IC50: 10 to 100 nM

CC(=O)OC[C@@H](C)n1nnnc1-c1cccc(NC(=O)c2cc3c(cc2F)CCN(C(=O)N(C)CC(F)(F)F)C3)n1 [Example 72]
IC50: > 1000 nM

CC(C)n1nnnc1-c1cccc(NC(=O)c2cc3c(cn2)CCN(C(=O)N2CCCC2)C3)n1 [Example 173]
IC50: 1 to 10 nM

CCC(=O)N1CCc2cnc(C(=O)Nc3cccc(-c4nnnn4[C@H](C)CO)n3)cc2C1 [Example 125]
IC50: 1 to 10 nM

CC(C)n1nnnc1-c1cccc(NC(=O)c2cc3c(cn2)CCN(S(=O)(=O)N(C)C)C3)n1 [Example 111]
IC50: 10 to 100 nM

COCCC(=O)N1CCc2cc(F)c(C(=O)Nc3cccc(-c4nncn4C(C)C)n3)cc2C1 [Example 24, 6-fluoro-N-(6-(4-isopropyl-4H-1,2,4-triazol-3-yl)pyridin-2-yl)-2-(3-methoxypropanoyl)-1,2,3,4-tetrahydroisoquinoline-7-carboxamide]
IC50: 1 to 10 nM

CC(C)n1cnnc1-c1cccc(NC(=O)c2cc3c(cc2F)CCN(S(=O)(=O)C2CC2)C3)n1 [Example 47]
IC50: 1 to 10 nM

COCCS(=O)(=O)N1CCc2cc(F)c(C(=O)Nc3cccc(-c4nncn4C(C)C)n3)cc2C1 [Example 23]
IC50: 1 to 10 nM

CC(C)N1Cc2cc(F)c(C(=O)Nc3cccc(-c4nncn4C(C)C)n3)cc2C1=O [Example 177, 6-fluoro-2-isopropyl-N-(6-(4-isopropyl-4H-1,2,4-triazol-3-yl)pyridin-2-yl)-3-oxoisoindoline-5-carboxamide]
IC50: > 1000 nM

CC(C)n1cnnc1-c1cccc(NC(=O)c2cc3c(cc2F)CCNC3)n1 [Example 27]
IC50: 10 to 100 nM

COCCS(=O)(=O)N1Cc2ccc(C(=O)Nc3cccc(-c4nncn4C(C)C)n3)cc2C1 [Example 6]
IC50: 100 to 1000 nM

CC(C)n1nnnc1-c1cccc(NC(=O)c2cc3c(cc2F)CCN(C(=O)N(C)CC(F)(F)F)C3)n1 [Example 77]
IC50: 10 to 100 nM

CC(C)n1nnnc1-c1cccc(NC(=O)c2cc3c(cc2F)CCN(c2ccccc2)C3)n1 [Example 54, 6-fluoro-N-(6-(1-isopropyl-1H-tetrazol-5-yl)pyridin-2-yl)-2-phenyl-1,2,3,4-tetrahydroisoquinoline-7-carboxamide]
IC50: 10 to 100 nM

C[C@H](CO)n1nnnc1-c1cccc(NC(=O)c2cc3c(cn2)CCN(C(=O)C2CCCC2)C3)n1 [Example 146, (R)-6-(cyclopentanecarbonyl)-N-(6-(1-(1-hydroxypropan-2-yl)-1H-tetrazol-5-yl)pyridin-2-yl)-5,6,7,8-tetrahydro-2,6-naphthyridine-3-carboxamide]
IC50: 1 to 10 nM

C[C@H](CO)n1nnnc1-c1cccc(NC(=O)c2cc3c(cn2)CCN(Cc2ccccn2)C3)n1 [Example 171]
IC50: 1 to 10 nM

C[C@H](CO)n1nnnc1-c1cccc(NC(=O)c2cc3c(cc2F)CCN(S(=O)(=O)CCC(F)(F)F)C3)n1 [Example 82]
IC50: 1 to 10 nM

CC1c2cc(C(=O)Nc3cccc(-c4nnnn4C(C)C)n3)c(F)cc2CCN1C(=O)OCc1ccccc1 (stereo not drawn) [Example 74, benzyl 6-fluoro-7-((6-(1-isopropyl-1H-tetrazol-5-yl)pyridin-2-yl)carbamoyl)-1-methyl-3,4-dihydroisoquinoline-2(1H)-carboxylate]
IC50: 100 to 1000 nM

C[C@H](CO)n1nnnc1-c1cccc(NC(=O)c2cc3c(cn2)CCN(C(=O)OCC(F)(F)F)C3)n1 [Example 126]
IC50: < 1 nM

CCn1cc(COC(=O)N2CCc3cnc(C(=O)Nc4cccc(-c5nnnn5[C@H](C)CO)n4)cc3C2)cn1 [Example 188, (1-ethyl-1H-pyrazol-4-yl)methyl (R)-7-((6-(1-(1-hydroxypropan-2-yl)-1H-tetrazol-5-yl)pyridin-2-yl)carbamoyl)-3,4-dihydro-2,6-naphthyridine-2(1H)-carboxylate]
IC50: 1 to 10 nM

CC(C)n1cnnc1-c1cccc(NC(=O)c2ccc3c(c2)CNC3)n1 [Example 9, N-(6-(4-isopropyl-4H-1,2,4-triazol-3-yl)pyridin-2-yl)isoindoline-5-carboxamide]
IC50: > 1000 nM

CC(C)COC(=O)N1CCc2ccc(C(=O)Nc3cccc(-c4nncn4C(C)C)n3)cc2C1 [Example 66]
IC50: 10 to 100 nM

COCCS(=O)(=O)N1CCc2cc(F)c(C(=O)Nc3cccc(-c4nnnn4C(C)C)n3)cc2C1 [Example 55]
IC50: 10 to 100 nM

CC(C)n1cnnc1-c1cccc(NC(=O)c2ccc3c(c2)CN(C(=O)NC2CCCC2)CC3)n1 [Example 61]
IC50: 10 to 100 nM

CCNS(=O)(=O)N1CCc2cc(F)c(C(=O)Nc3cccc(-c4nncn4C(C)C)n3)cc2C1 [Example 22]
IC50: 1 to 10 nM

C[C@H](CO)n1nnnc1-c1cccc(NC(=O)c2cc3c(cn2)CCN(C(=O)OC2CC4CCC(C2)N4C)C3)n1 (stereo partly drawn) [Example 190, 8-methyl-8-azabicyclo[3.2.1]octan-3-yl 7-((6-(1-((R)-1-hydroxypropan-2-yl)-1H-tetrazol-5-yl)pyridin-2-yl)carbamoyl)-3,4-dihydro-2,6-naphthyridine-2(1H)-carboxylate]
IC50: 1 to 10 nM

C[C@H](CO)n1nnnc1-c1cccc(NC(=O)c2cc3c(cn2)CCN(C(=O)OC2CCCC2)C3)n1 [Example 156]
IC50: 1 to 10 nM

CC(C)n1cnnc1-c1cccc(NC(=O)c2ccc3c(c2)CN(C(=O)OCc2ccccc2)CC3)n1 [Example 67, benzyl 7-((6-(4-isopropyl-4H-1,2,4-triazol-3-yl)pyridin-2-yl)carbamoyl)-3,4-dihydroisoquinoline-2(1H)-carboxylate]
IC50: 10 to 100 nM

CCN(C)C(=O)N1CCc2cc(F)c(C(=O)Nc3cccc(-c4nncn4C(C)C)n3)cc2C1 [Example 45]
IC50: 1 to 10 nM

CCN(C)C(=O)N1CCc2cc(F)c(C(=O)Nc3cccc(-c4nnnn4C(C)C)n3)cc2C1 [Example 95]
IC50: 10 to 100 nM

CC(C)n1cnnc1-c1cccc(NC(=O)c2ccc3c(c2)CN(C(=O)OC(C)(C)C)CC3)n1 [Example 183a]
IC50: > 1000 nM

C[C@H](CO)n1nnnc1-c1cccc(NC(=O)c2cc3c(cn2)CCN(S(=O)(=O)N(C)C)C3)n1 [Example 166]
IC50: 1 to 10 nM

CC1c2cc(C(=O)Nc3cccc(-c4nnnn4C(C)C)n3)c(F)cc2CCN1CC(=O)N1CCCC1 (stereo not drawn) [Example 108, 6-fluoro-N-(6-(1-isopropyl-1H-tetrazol-5-yl)pyridin-2-yl)-1-methyl-2-(2-oxo-2-(pyrrolidin-1-yl)ethyl)-1,2,3,4-tetrahydroisoquinoline-7-carboxamide]
IC50: 100 to 1000 nM

CCN(CC)C(=O)N1CCc2cc(F)c(C(=O)Nc3cccc(-c4nncn4C(C)C)n3)cc2C1 [Example 41]
IC50: 1 to 10 nM

COCCS(=O)(=O)N1CCc2cnc(C(=O)Nc3cccc(-c4nnnn4C(C)C)n3)cc2C1 [Example 138]
IC50: 1 to 10 nM

CCN1CCN(C(=O)N2CCc3cc(F)c(C(=O)Nc4cccc(-c5nnnn5C(C)C)n4)cc3C2)C(=O)C1=O [Example 90]
IC50: 10 to 100 nM

C=CCOC(=O)N1CCc2ccc(C(=O)Nc3cccc(-c4nncn4C(C)C)n3)cc2C1 [Example 59, allyl 7-((6-(4-isopropyl-4H-1,2,4-triazol-3-yl)pyridin-2-yl)carbamoyl)-3,4-dihydroisoquinoline-2(1H)-carboxylate]
IC50: 10 to 100 nM

CC(C)COC(=O)N1CCc2cnc(C(=O)Nc3cccc(-c4nnnn4[C@H](C)CO)n3)cc2C1 [Example 127]
IC50: 1 to 10 nM

C[C@H](CO)n1nnnc1-c1cccc(NC(=O)c2cc3c(cn2)CCN(C)C3)n1 [Example 181]
IC50: 1 to 10 nM

CC(C)n1nnnc1-c1cccc(NC(=O)c2cc3c(cc2F)CCN(C(=O)N2CCS(=O)(=O)CC2)C3)n1 [Example 104]
IC50: 10 to 100 nM

CCOC(=O)N1CCc2cnc(C(=O)Nc3cccc(-c4nnnn4[C@H](C)CO)n3)cc2C1 [Example 145]
IC50: 1 to 10 nM

CC(=O)OC[C@@H](C)n1nnnc1-c1cccc(NC(=O)c2cc3c(cc2F)CCN(C(=O)N2CCCC2)C3)n1 [Example 73]
IC50: > 1000 nM
